{
  "source": "patent US6444871B1",
  "about": "“Tetracycline repressor regulated mammalian cell transcription and viral replication switch” (Brigham and Women's Hospital, priority 1997, dated 2002)",
  "tested_on": "tet operator-bearing hCMV major immediate-early enhancer-promoter",
  "experiment": "hEGF expression in porcine partial thickness wounds after particle-mediated gene transfer",
  "assay_type": "in vivo, pig",
  "conditions": "500 mg tetracycline intravenous; day 2 to day 3 post-gene transfer",
  "method": "FIG. 5. In vivo regulation of the hCMV major immediate-early enhancer-promoter by the tet repressor. A total of 18 partial thickness wounds ([…]) were created on porcine dorsal skin. Nine wounds received 0.2 μg of pCMVtetOEGF and 0.8 μg of pcDNA3 vector DNA and the others received 0.2 μg of pCMVtetOEGF and 0.8 μg of pcDNA3-tetR by particle-mediated gene transfer. After particle bombardment, each transfected wound was enclosed in a sealed vinyl adhesive chamber containing 1.2 ml of isotonic saline in the presence of 100 units/ml penicillin and 100 μg/ml streptomycin. Wound fluid was collected from the chambers at 22, 46 and 70 hours after gene transfer and stored at −70° C. Following collection of wound fluid at each indicated time point, a new chamber was applied. Each pig was given 500 mg of tetracycline by intravenous injection at 46 hours after gene transfer. hEGF expression in wound fluid was determined by ELISA. The vertical line associated with each bar represents standard error. […]\nPreparation of cartridges with coated DNA-gold beads for Accell (Agracetus/Geniva, Inc.) particle-mediated gene transfer and the utilization of the Accell helium gene gun were according to the protocol provided by Geniva, Inc. (8520 University Green, Middleton, Wis. 53562). […] Levels of EGF in wound fluid was determined by ELISA with anti-HEGF specific antibody. […]",
  "data": [
    {"smiles": "CN(C)[C@@H]1C(O)=C(C(N)=O)C(=O)[C@@]2(O)C(O)=C3C(=O)c4c(O)cccc4[C@@](C)(O)[C@H]3C[C@@H]12", "note": "[tetracycline]", "values": [
      {"measurement": "increase of human EGF expression in wounds receiving pCMVtetOEGF and pcDNA3-tetR", "result": 4, "unit": "fold"}
    ]}
  ]
}
